Measurements as given in patent publication US12642809B2, “Fucosylation and immune modulation in cancer” (H. LEE MOFFITT CANCER CENTER AND RESEARCH INSTITUTE, INC., priority 2019, dated 2026).
“Also recorded” adds a separate entry of the source.

Columns and labels:
SW1 tumors = assay: Anti-PD1 ± L-fucose, SW1 (NRAS-mutant) model in C3H mice; format: in vivo, mouse
Text: Fucosylation of HLA-DRB1 occurs on amino acid N48 (mutation to G abolishes interaction with fucose-binding AAL, lectin) (FIG. 9A). […] To further investigate the efficacy of the combination therapy of L-fucose and anti-PD1 and to see if the combination of L-fucose and anti-PD1 improved the efficacy of either agent alone, two mouse melanoma mouse models were used. The first was the NRAS-mutant melanoma mouse model. Here, C3H mice were pretreated with anti-PD1 and/or L-fucose or a L-fucose pre-dose followed by anti-PD1 antibody (FIG. 11). […] Using a BRAF-mutant melanoma model, the efficacy of the combination therapy was more pronounced. Here C57BL6 mice were challenged with SMI cells (FIG. 11). 7 days post challenge, mice received either a control, anti-PD1, L-fucose, or L-fucose and anti-PD1.
SW1 or SM1 mouse melanoma cells were injected into syngeneic C3H/HeN female or C57BL/6 male mice, respectively. After approximately 7 days, when the mice tumors reached ˜150 mm^3, the mice were either supplemented with or without 100 mM L-fucose (Biosynth (Oak Terrace, IL)) via drinking water, which was provided ad libitum. Simultaneously, the mice were injected either with PBS (control) or anti-PD1 (20 mg/kg, clone RMP1-14, Bioxcell (West Lebanon, NH)) every 3-4 days until endpoint. When the tumors reached ˜2 cm^3, the animals were sacrificed.

SW1 melanoma tumors = SW1 melanoma tumors in C3H/HeN mice fed control or L-fucose water; format: in vivo, mouse; settings: for reduced tumor growth: 100 mM L-fucose in drinking water from ~150 mm^3
Method: To determine which immune cell populations were affected by L-fucose, another mouse melanoma model treated with control or L-fucose-supplemented water was used. First, 1.25×10^6 SW1 mouse melanoma cells were injected into the back right flanks of the mice and allowed the tumors to grow to 150 mm^3. At 150 mm^3 (14 days), 100 mM L-fucose was administered via the drinking water to half of the mice. Tumor growth was monitored (FIGS. 3A and 3B). Total and specific subpopulations of tumor-infiltrating lymphocytes were assessed by cell flow cytometric analysis (FIGS. 3C and 3D). Assessed populations included F4/80 (macrophage)-, Gr-1 (MDSCs)-, Cd11c (Dendritic cells)-, and DX5 (NK cells)-positive cells. For T-cells, we probed for CD3 (general T-cell marker) and further for CD4 and CD8 (for those T cell subpopulations). Of the CD4-positive cells, CD25 positive cells was used to elucidate the T regulatory cells. […] Both CD4 and CD8 positive T cells (CD3+ cells) increased in response to fucose. However, myeloid derived suppressor cells (MDSCs) decreased in response to dietary fucose supplementation.
Tumors of SW1 or SMI melanoma cells from C3H/HeJ or C57BL/6 mice, respectively) were digested using 1× tumor digest buffer (0.5 mg/ml. Collagenase I, 0.5 mg/ml. Collagenase IV, 0.25 mg/ml. Hyalyronidase V. 0.1 mg/ml. DNAse I in HBSS (Millipore Sigma (St. Louis, MO)). Tumors were homogenized using the Miltenyi MACs dissociator. Red blood cells were lysed using ACK lysis buffer (Life Technologies, (Grand Island, NY)). Tumor homogenate cells were counted using a standard hemocytometer. (7) Flow Cytometry (a) TIL Profiling:
Single-cell suspensions from tumor and spleen tissue were stained with Live/Dead Zombie NIR (Biolegend, (San Diego, CA)) at 1:1,000 in PBS for 20 min. Cell suspensions were spun down and stained with the following antibodies: APC anti-mouse CD3 (0.5 μg/mL, BD Biosciences (San Jose, CA)), Pacific Blue anti-mouse CD4 ([…], BD Biosciences (San Jose, CA)), BV785 anti-mouse CD8 (0.5 μg/mL, BD Biosciences (San Jose, CA)), PerCP anti-mouse CD25 ([…], BD Biosciences (San Jose, CA)), FITC anti-mouse F4/80 (0.5 μg/mL, BD Biosciences (San Jose, CA)), PeCy7 anti-mouse CD11c (0.5 μg/mL, BD Biosciences (San Jose, CA)), PE anti-mouse NK1.1 (0.5 μg/mL, BD Biosciences (San Jose, CA)), PE anti-mouse DX5 (0.5 μg/mL, BD Biosciences (San Jose, CA)), PerCP-Cy5.5 anti-mouse CD11b (0.5 μg/mL, BD Biosciences (San Jose, CA)). After staining, the cells were washed and fixed (2% formaldehyde), followed by another wash and flow cytometric analysis. The compensation controls were prepared using 0.5 μg/ml. of each antibody with beads UltraComp eBeads™, (ThermoFisher Scientific (Waltham, MA)). All samples were subject to flow cytometric analysis using a LSR Flow Cytometer (BD Biosciences (San Jose, CA)). Flow cytometric data was further analyzed using FlowJo™ analysis software (BD Biosciences (San Jose, CA)). TIL profiles were determined as a measure of TIL subpopulations per gram of tumor tissues or % of total splenocytes.
FFPE mouse tumor sections were immunostained with FITC-conjugated AAL lectin (0.4 μg/mL, Vector Laboratories (Burlingame, CA)), rabbit anti-Mart-1 (0.2 μg/mL, Millipore Sigma (St. Louis, MO), and rabbit anti-S100 (0.2 μg/mL, Agilent Technologies (Santa Clara, CA)), followed by AlexaFluor 594 donkey anti-rabbit secondary antibody (0.05 μg/mL, ThermoFisher Scientific (Waltham, MA)). The slides were mounted with VECTASHIELD®+DAPI (Vector Laboratories (Burlingame, CA)). Microscopy images were acquired using a Keyence BZ-X710 microscope (Osaka, Japan), and images were measured for AAL-positive signal within MARTI-/S 100-positive regions (designated as melanoma regions of interest) using FIJI software (NIH). Statistical analysis was performed using GraphPad Prism™ (San Diego, CA).
Four-to-six-week-old female C3HeN and male C57BL6 mice were purchased from Charles Rivers Laboratories for the indicated experiments. […]

[1] = empty vector-expressing SW1 tumors
[2] = vs control diet, listed as L-fuc

## C[C@H](O)[C@@H](O)[C@@H](O)[C@H](O)C=O [L-fucose]
SW1 tumors; 100 mM L-fuc alone
  suppressed tumor growth: 50-60%
SW1 tumors; NRAS-mutant model, FIG. 11, single agents
  control of tumor: effectively control the tumor
SW1 tumors; single agents
  tumor suppression compared with anti-PD1: as much as anti-PD1; also recorded: as well as anti-PD1
SW1 melanoma tumors; 100 mM L-fucose in drinking water
  increase in tumor fucosylation: ~2.25 fold
SW1 melanoma tumors
  reduced tumor growth: > 65%
SW1 melanoma tumors; listed as L-fuc
  reduced tumor growth: ~50%
SW1 melanoma tumors; 100 mM L-fucose in drinking water, flow cytometry
  increase in total TIL counts / infiltrating immune cells per gram of tumor: 10-50 fold
SW1 melanoma tumors; [1]
  reduced growth of EV tumors: ~50%
  total TILs in EV tumors: doubling
SW1 melanoma tumors; flow cytometry
  splenic lymphocyte profiles: without significant changes
SW1 melanoma tumors; mFuk-expressing SW1 tumors
  additive effect of L-fuc in mFuk tumors: No additive effects
SW1 melanoma tumors; vs control diet
  absolute counts of each TIL subpopulation: increased
  intratumoral CD4+ and CD8+ T cells: increased; also recorded: doubled
  myeloid derived suppressor cells (MDSCs) in tumor: decreased
  overall immune infiltration of tumors: increased
SW1 melanoma tumors; [2]
  intratumoral CD4+ and CD8+ T cells: doubling
  myeloid derived suppressor cells (MDSCs) in tumor: either decreased or low
